Experimental data as given in US10694743B2, “Agricultural compositions with reduced aquatic toxicity” (priority 2014, dated 2020).
“Also recorded” adds a separate entry of the source.

Columns and labels:
wild oat (AVEFA) = experiment: Agricultural field test of glyphosate with adjuvant, visual weed control (second trial); format: in vivo, Avena fatua; details: glyphosate 480 g.a.e./ha; for AVEFA 9 DAT, %: 0-100, 9 DAT; for AVEFA 23 DAT, %: 0-100, 23 DAT
Method: (§1) Amine ethoxylates are evaluated as adjuvants for glyphosate formulations in agricultural field tests performed by an independent laboratory. The weed species included in the evaluation are common lambsquarters (CHEAL), barnyard grass (ECHCG), and wild oat (AVEFA).
(§2) Two field trials are conducted in the Netherlands during the summer. In the first trial, common lambsquarters (CHEAL, Chenopodium album), barnyard grass (ECHCG, Echinochloa crus-galls) and wild oat (AVEFA, Avena fatua) are sown in three distinct zones of the same size in a 4×2 m field plot. Other emerging weed species are removed by hand as needed. Five weeks after sowing, the plots are treated and weed control is visually assessed 8, 14, and 22 days after treatment (DAT). Visual assessment is used with a scale of 0=no effect to 100=complete kill. Growth reduction is included in this assessment. On the day of treatment, ECHCG has more than six leaves, and CHEAL has at least six unfolded leaves. A second test with AVEFA alone is conducted because the level of emergence was too low in the first test. (Results from the first AVEFA testing are not included.) AVEFA is at the 3-leaf stage on the day of treatment. The plots are visually evaluated 9 and 23 days after treatment.
(§3) A glyphosate potassium solution (540 g.a.e./L) without surfactants or other adjuvant chemicals is used to prepare solutions that contain the adjuvants listed in Table 2A. Roundup® Powermax® (540 g.a.e./L, product of Monsanto) is used as a control. The glyphosate solutions are diluted with deionized water such that application at a water volume of 80 L/ha results in a glyphosate application rate of 480 g.a.e./ha. Adjuvants are included in the diluted glyphosate solution at a ratio of 160 g adjuvant per 540 g.a.e. glyphosate. In this way, commercial glyphosate products containing glyphosate at 540 g.a.e./L and adjuvant at 160 g/L are simulated.
(§4) Glyphosate solutions are applied with a backpack sprayer having a TeeJet® TP8003E nozzle set to deliver 80 L/ha at 150 kPa. The application with the first trial started early in the morning in mid-summer. Conditions: sunny skies, relative humidity 80%, temperature 18° C., little or no wind, wet soil, damp foliage. Application of AVEFA trial starts in early autumn late in the afternoon. Conditions: partly cloudy, relative humidity 79%, temperature 15° C., little or no wind, wet soil, dry foliage.

barnyard grass (ECHCG) = experiment: Agricultural field test of glyphosate with adjuvant, visual weed control; format: in vivo, Echinochloa crus-galls; details: for ECHCG control relative to Roundup Powermax / ECHCG 22 DAT, %: 22 DAT; for ECHCG 8 DAT, % / ECHCG 14 DAT, % / ECHCG 22 DAT, %: visual weed control, 0-100, glyphosate 480 g.a.e./ha
Method: as §1, §2, §3, §4

[1] = test system: common lambsquarters (CHEAL); experiment: as above; format: in vivo, Chenopodium album; details: for CHEAL control relative to the control: 8 and 14 DAT; for CHEAL control relative to Roundup Powermax / CHEAL 22 DAT, %: 22 DAT; for CHEAL 14 DAT, % / CHEAL 22 DAT, % / CHEAL 8 DAT, %: visual weed control, glyphosate 480 g.a.e./ha; for CHEAL 14 DAT, % / CHEAL 22 DAT, %: 0-100; for CHEAL 8 DAT, %: 0=no effect to 100=complete kill, 160 g adjuvant per 540 g.a.e.
Method: as §1, §2, §3, §4

[2] = test system: common lambsquarters (CHEAL), barnyard grass (ECHCG), and wild oat (AVEFA); experiment: Agricultural field testing, overall performance over the weed species; format: in vivo; details: all weed species, glyphosate 480 g.a.e./ha
Method: as §1
as §2, with “after treatment. […]” for “after treatment.”

Daphnia magna = experiment: Aquatic toxicity screen, Daphnia sp. Acute Immobilization Test (OECD 202 / OPPTS 850.1010); details: for 48-Hour EC50: 48-hour exposure, static test conditions
Method: The study is performed based on procedures in the OECD Guidelines for Testing of Chemicals, Guideline 202: Daphnia sp., Acute Immobilization Test, and U.S. EPA Guidelines, OPPTS Number 850.1010: Aquatic Invertebrate Acute Toxicity Test. The half maximal effective concentration (EC50) after 48 hours is reported below.

Substance	AVEFA 9 DAT, % (wild oat (AVEFA)) [%]	AVEFA 23 DAT, % (wild oat (AVEFA)) [%]	ECHCG control relative to Roundup Powermax (barnyard grass (ECHCG))	ECHCG 8 DAT, % (barnyard grass (ECHCG)) [%]	ECHCG 14 DAT, % (barnyard grass (ECHCG)) [%]	ECHCG 22 DAT, % (barnyard grass (ECHCG)) [%]	CHEAL control relative to the control [1]	CHEAL control relative to Roundup Powermax [1]	CHEAL 14 DAT, % [1] [%]	CHEAL 22 DAT, % [1] [%]	CHEAL 8 DAT, % [1] [%]	overall field performance as glyphosate adjuvant [2]	overall field performance as glyphosate adjuvant ([2]; listed as C11 unsaturated 2EO ethoxylate)	48-Hour EC50 (Daphnia magna) [µg/mL]	aquatic toxicity rating (Daphnia magna; in vivo)
C11 saturated fatty amine 2EO ethoxylate [Comparative Agent D, reference compound]	82.5	100	outperform Roundup Powermax	97.5	91.3	100	outperform the control	same performance as Roundup Powermax	91.3	92.5	75.0				
C11 unsaturated fatty amine 2EO ethoxylate [Agent B]	87.5	100	outperform Roundup Powermax; also recorded: top performer	100	97.7	100	outperform the control	same performance as Roundup Powermax	97.7	96.7	86.7	best overall performance of the group	outperforms its saturated analog		
saturated C11 fatty amine 5EO ethoxylate [Saturated C11 amine 5EO ethoxylate]														3.3	moderately toxic
unsaturated C11 fatty amine 5EO ethoxylate [Unsaturated C11 amine 5 EO ethoxylate]														20	
